The text below walks through data of patent US7361459B2, “Antiviral inhibition of capsid proteins” (University of Maryland, Baltimore County, priority 2002, dated 2008).

The term Kd denotes the free concentration of one partner at which half of the binding sites on the other are occupied at equilibrium, for simple one-to-one binding.

Data set [1] has as its target T1, HIV-1 capsid protein N-terminal domain (Human immunodeficiency virus type 1 group M subtype B, UniProt P12493).
T1 construct: DNA encoding the CA N-terminal domain (residues 1-151); made in house
The data set is described as follows: 1H-15N HSQC NMR titration, binding to the apical cleft. Conditions: for binding to the capsid NTD, from chemical shift changes (in words): 1H-15N HSQC, FIGS. 13-14. The text has this:
DNA encoding the CA N-terminal domain (residues 1-151) was amplified from HIV-1 cDNA plasmid pNL-4-3 and an oligonucleotide encoding a C-terminal hexahistidine tag was appended to the gene. The DNA was inserted into a p11a expression vector (Novagen, Madison, Wis.), and the protein product was purified by cobalt affinity chromatography (Clontech, Palo Alto, Calif.); MWcalc=17523.0 daltons, MWobs=17523.10±0.44 daltons (electrospray Mass Spectrometry). The plasmid for the full length, native capsid protein was kindly provided by Dr. W. I. Sundquist (University of Utah, Salt Lake City, Utah), and the protein was purified as described. NMR spectra were assigned using conventional triple resonance methods. Binding isotherms from ^1H-^15N NMR HSQC titration experiments were calculated with ORIGIN 7.0 software (MicroCal, Northampton, Mass.).
To identify compounds that inhibit functions of the capsid protein, public domain chemical libraries were screened for compounds that might bind to clefts on the surface of the capsid protein and tested for binding using NMR titration spectroscopy. Screening efforts focused mainly on a β-hairpin cleft that is exposed on the surface of the N-terminal domain of the immature capsid protein but becomes occupied by residues of a β-hairpin that forms after proteolytic cleavage of Gag.
The mature N-terminal domain was titrated with N-(3-chloro-4-methylphenyl)-N′-[2-thioethyl-2′-[5-(dimethylaminomethyl)]-2-methylfuryl ]urea (CAP-1).

The subject of data set [2] is HIV-1. As to the kind of experiment: Virus production: particle-associated RT activity and CA (p24) levels in U1 supernatants. Conditions: U1 cells. It is filed as cell-based. On the procedure: (§1) U1 cells (5×10^5 cells/ml) were mixed with TNF-α (10 ng/ml, Sigma) for activation of HIV virion production and treated with CAP-1 at different concentrations. Cultures were harvested 72 hours after treatment. Cell viability was measured using the MTS cell proliferation assay (CellTiter 96 Aqueous One Solution Cell Proliferation Assay, Promega, Madison, Wis.). Supernatants were collected, the cell debris removed by low speed centrifugation, and the particles in the supernatants pelleted by microcentrifugation. Infectious units associated with the particles were measured as described in Kimpton, et al., Detection of replication-competent and pseudotyped HIV with a sensitive cell line on the basis of activation of an integrated β-galactosidase gene, J. Virol. 66: 2232-39, 1992, except that β-gal activities were measured using a Tropix Gal-Screen detector system (Applied Biosystems, Foster City, Calif.). Particle-associated RT activities were determined as described in Huang, et al., p6Gag is required for particle production from full length human immunodeficiency virus type 1 molecular clones expressing protease, J. Virol., 96: 6810-18, 1995. […] Quantitative p24 (CA) assays were performed with the HIV-1 p24 Antigen Capture ELISA kit (AIDS vaccine program, FCRDC/SAIC/NCI, Frederick, Md.). […]

For the next data set, the system named is HIV-1RF. As to the kind of experiment: Virus particle infectivity and RT activity from infected MAGI cell cultures. It is filed as cell-based. How it is done:
(§2) U1 cells (5×10^5 cells/ml) were mixed with TNF-α (10 ng/ml, Sigma) for activation of HIV virion production and treated with CAP-1 at different concentrations. Cultures were harvested 72 hours after treatment. Cell viability was measured using the MTS cell proliferation assay (CellTiter 96 Aqueous One Solution Cell Proliferation Assay, Promega, Madison, Wis.). Supernatants were collected, the cell debris removed by low speed centrifugation, and the particles in the supernatants pelleted by microcentrifugation. Infectious units associated with the particles were measured as described in Kimpton, et al., Detection of replication-competent and pseudotyped HIV with a sensitive cell line on the basis of activation of an integrated β-galactosidase gene, J. Virol. 66: 2232-39, 1992, except that β-gal activities were measured using a Tropix Gal-Screen detector system (Applied Biosystems, Foster City, Calif.). Particle-associated RT activities were determined as described in Huang, et al., p6Gag is required for particle production from full length human immunodeficiency virus type 1 molecular clones expressing protease, J. Virol., […]: 6810-18, 1995. Cell lysates and pelleted particles were subjected to SDS-PAGE analysis using AIDS patient sera (AIDS Research and Reference Regent Program, NIAID, NIH). Quantitative p24 (CA) assays were performed with the HIV-1 p24 Antigen Capture ELISA kit (AIDS vaccine program, FCRDC/SAIC/NCI, Frederick, Md.). MAGI cells were washed after viral adsorption (HIV-1RF) with PBS and were fed fresh media containing CAP-1 at various concentrations. 72 hours post-infection, the culture supernatants were harvested and pre-cleared. Virus particles present on the supernatants were collected by microcentrifugation and particle-associated RT activity and infectivity were subsequently measured.

The test system of a further data set is U1 cells. As to the kind of experiment: Cell viability / toxicity, MTS cell proliferation assay. Conditions: for toxicity (in words): latent infected U1 cells. On the procedure: as §2
The CAP compounds were tested for toxicity and antiviral activity using HIV-1 producing, latent infected U1 cells. This assay allows assessment of antiviral effects on late phase replication events.

Data set [3] deals with HIV-1. The data set is described as follows: Infectious units of particles from latent infected U1 cells. Type of data set: cell-based. On the procedure: as §1
The next data set has as its target protease (Human immunodeficiency virus type 1 group M subtype B, UniProt P04585). As to the kind of experiment: In vitro protease activity. It is filed as biochemical.
Data set [4] relates to HIV-1 capsid core assembly. Type of data set: cell-based. Conditions: particles from treated U1 cells.
Description: Treated (CAP-1) and untreated virus-producing U1 cells were pelleted, washed in phosphate-buffered saline (PBS) and resuspended in at least ten cell pellet volumes of fixative (100 mM sodium cacodylate, pH 7.2, 2.5% glutaraldehyde, 1.6% paraformaldehyde, 0.5% picric acid). Cells were fixed for 24-48 hours, after which fixative was removed and cells were washed twice in PBS and pelleted in eppendorf centrifuge tubes. Washed cell pellets were post-fixed one hour in 1% osmium tetroxide plus 0.8% potassium ferricyanide in 100 mM sodium cacodylate, pH 7.2. After thorough rinsing in water, cells were pre-stained in 4% uranyl acetate one hour, thoroughly rinsed, dehydrated, infiltrated overnight in 1:1 acetone:Epon 812, infiltrated one hour with 100% Epon 812 resin, and embedded in the resin. After polymerization, 60-80 nm thin sections were cut on a Reichert untramicrotome, stained 5 minutes in lead citrate, rinsed, post-stained 30 minutes in uranyl acetate, rinsed and dried. EM was performed at 60 kV on a Philips CM120/Biotwin equipped with a 1024×1024 Gatan multiscan CCD, and images were collected at original magnifications of 25,880×-36,960×, corresponding t resolutions of 8.9 and 6.5 Å/pixel, respectively. For each sample, 4 separate EM grids were viewed, and at least 47 were collected, corresponding to a minimum total area of 35 micron^2.
The test system of the next data set is gp120. The data set is described as follows: Quantitation of gp120 in supernatant with antibodies against gp120. Type of data set: cell-based, HIV-1. How it is done:
(§3) To determine if CAP-1 affects viral gene expression and particle production, reverse transcriptase (RT) activity and CA (p24) levels were measured for the supernatants after pelleting and removal of the cells. […] Quantitation of gp120 was also obtained for the supernatant using antibodies against gp120.

Another data set has as its system Gag polyprotein. The data set is described as follows: p24 (CA) Western blot of Gag and its cleavage products, U1 cells. Type of data set: cell-based, HIV-1. How it is done: as §2, with “72 hours post-infection, the culture supernatants were harvested and pre-cleared.” left out
as §3
In general terms: Immunoblotting shows a protein as a band on a membrane.

A further data set has as its target Gag (Human immunodeficiency virus type 1 group M subtype B, UniProt P12493). The data set is described as follows: Mass action calculation of CAP-1 bound to CA/Gag in immature virions. Details: species or system HIV-1. How it is done: This is likely due to the high local concentration of Gag molecules in assembled virions (14 mM), which favors binding by ligands with even modest affinities, e.g., N-(3-chloro-4-methylphenyl)-N′-[2-thioethyl-2′-[5-(dimethylaminomethyl)]-2-methylfuryl]urea (CAP-1). Thus conservatively assuming that cytosolic drug concentrations in the budding virus and cells are equal (100 μM), the percentage of viral CAP-1 molecules bound to CA can be estimated by standard mass action calculations which affords a value for the concentration of bound CAP-1 ([CA:CAP-1]) of 94 μM.

The next data set deals with HIV-1 CA (Human immunodeficiency virus type 1 group M subtype B, UniProt P12493). Conditions: for initial assembly rate: 350 nm, 21° C., no compound 204±36.
Where [5] appears, read: as a function of increasing CAP-1.

Read-outs that look alike come from different tables or passages of the source.

For `O=C(Nc1cccc(C(F)(F)F)c1)Nc1ccc(F)c([N+](=O)[O-])c1` [CAP-6, N-(3-nitro-4-fluorophenyl)-N′-[3-(1,1,1-trifluoromethyl)phenyl] urea], in data set [1], the “binding to the capsid NTD, from chemical shift changes (in words)” value was “capsid binding”.
With `Cc1ccc(NC(=O)Nc2ccc(C#N)cc2)cc1Cl` [CAP-4, N-(3-chloro-4-methylphenyl)-N′-(4-cyanophenyl) urea], the “binding to the capsid NTD, from chemical shift changes (in words)” value in data set [1] is “very weak binding”.
Same read-out and setting: then “N-[(3-chloro-4-methyl phenyl)-N′,N′-propyl] urea [CAP-7]”, with “capsid binding”.
`Cc1ccc(NC(=O)NCCSCc2ccc(CN(C)C)o2)cc1Cl` [CAP-1, N-(3-chloro-4-methylphenyl)-N′-[2-thioethyl-2′-[5-(dimethylaminomethyl)]-2-methylfuryl]urea]: in the data set on HIV-1 [2], the “CA (p24) levels of supernatants (in words)” value is given as “unaffected” and the “RT activities of supernatants (in words)” value is “unaffected”. Besides, the “binding to the capsid NTD, from chemical shift changes (in words)” value in [1] is given as “bind to the apical site of the protein”. Moreover, the “infectious units, of the untreated levels” value in the data set on HIV-1RF (100 μM, MAGI cells, 72 hours post-infection) was “less than 2%”. For the same molecule, the “viral RT activity (in words)” value in the data set with HIV-1RF (MAGI cells) was “No reductions”. The “virus production after pre-incubation of MAGI cells or virus particles (in words)” value with HIV-1RF (pre-incubation with CAP-1) is listed as “unaffected”. Further, the “cell viability (in words)” value with U1 cells (100 μM, U1 cells, 72 hours) is listed as “fully viable”. Besides, the “tolerability in cell cultures (in words)” value in the data set on U1 cells (cell cultures) is “particularly well-tolerated”. In the data set on U1 cells (72 hours), the “toxicity (in words)” value is “non-toxic”. Further, the “effect on supernatant infectivity (in words)” value in the data set with HIV-1 [3] is “dose dependent reductions”. The “reduction of infectivity relative to untreated samples” value in the data set with HIV-1 [3] (100 μM, 72 hours) is on record as “ca. 95%”. The “in vitro protease activity (in words)” value at protease was “did not affect”. For the same molecule, the “particles with a cone-shaped core (in words)” value in data set [4] was “none”. For the same molecule, in data set [4] (untreated 70%), the “particles containing a dense, centrally located core” value came out at 35%. Also, the “gp120 in supernatant, treated vs untreated (in words)” value in the data set with gp120 is “No differences”. Moreover, in the data set on Gag polyprotein (setting [5]), the “intracellular levels of Gag (p55) (in words)” value is given as “reduction”; the “levels of Gag cleavage products p24 and p41 (in words)” value is “remained relatively unaffected”. Moreover, the “proteolytic processing of Gag (in words)” value in the data set on Gag polyprotein (p24 Western, treated vs untreated) is recorded as “does not significantly affect”. For the same molecule, on Gag (100 μM dose), the “CAP-1 molecules in immature virions bound to Gag” value is given as 94%. At Gag (100 μM drug, 14 mM Gag in assembled virions), the “concentration of bound CAP-1 ([CA:CAP-1])” value was 94 µM. The “effect on the rate of assembly (in words)” value on HIV-1 CA is on record as “diminished in a dose-dependent manner”. Also, at HIV-1 CA (compound:CA ratio 1:1), the initial assembly rate stood at 93±3 mOD/min. Further, the initial assembly rate at HIV-1 CA (compound:CA ratio 2:1) was 67±16 mOD/min.
Turning to `CC(=O)Nc1ccc(NC(=O)Nc2ccc(C)c([N+](=O)[O-])c2)cc1` [CAP-2, N-(4-N-acetamidophenyl)-N′-(3-nitro-4-methylphenyl) urea], the “binding to the capsid NTD, from chemical shift changes (in words)” value in data set [1] is recorded as “bind to the apical site of the protein”. The molecule also yielded a Kd in [1] (NMR titration, 1:1 binding isotherms) of 52 ± 27 µM. Moreover, the “toxicity (in words)” value in the data set with U1 cells (72 hours) is on record as “too cytotoxic”. In addition, the “effect on the rate of assembly (in words)” value on HIV-1 CA was “diminished in a dose-dependent manner”. Also, the initial assembly rate was determined as 81±2 mOD/min on HIV-1 CA (compound:CA ratio 0.5:1) and 39±11 mOD/min at HIV-1 CA (compound:CA ratio 1:1).
As to `Cc1ccc(NC(=O)NC(C)C)cc1[N+](=O)[O-]` [CAP-3, N-(2-propyl)-N′-(3-nitro-4-methylphenyl) urea], the “binding to the capsid NTD, from chemical shift changes (in words)” value in [1] is “very weak binding”.
With `Cc1ccc(NC(=O)Nc2ccc(C(Cl)(Cl)Cl)cc2)cc1Cl` [CAP-5, N-(3-chloro-4-methylphenyl)-N′-[4-(1,1,1-trichloromethyl)phenyl] urea], in [1], the “binding to the capsid NTD, from chemical shift changes (in words)” value is on record as “capsid binding”.
